Measured values reported in ChEMBL document CHEMBL1123991 (J Med Chem, 1988).

Legend:
[1] = target: D(2) dopamine receptor (Rattus norvegicus, UniProt P61169); assay: Inhibition of 0.1 nM of [125I]- (S)-N-(1-Ethyl-pyrrolidin-2-ylmethyl)-5-iodo-2-methoxy-benzamide binding in striatal homogenates of rat brain; type: tissue-based
[2] = Ratio of uptake of [125I]- (S)-N-(1-Ethyl-pyrrolidin-2-ylmethyl)-5-iodo-2-methoxy-benzamide in striatum:striatum; 1.0:1; type: functional
[3] = system: Rattus norvegicus; assay: Regional uptake of [125I]- (S)-N-(1-Ethyl-pyrrolidin-2-ylmethyl)-5-iodo-2-methoxy-benzamide in rat frontal cortex 60 min after intravenous administration; type: functional, organism-based
[4] = Ratio of uptake of [125I]- (S)-N-(1-Ethyl-pyrrolidin-2-ylmethyl)-5-iodo-2-methoxy-benzamide in striatum:cerebellum; 7.2:1; type: functional
[5] = system: Rattus norvegicus; assay: Regional uptake of [125I]- (S)-N-(1-Ethyl-pyrrolidin-2-ylmethyl)-5-iodo-2-methoxy-benzamide in rat cerebellum 60 min after intravenous administration; type: functional, organism-based
[6] = system: Rattus norvegicus; assay: Regional uptake of [125I]- (S)-N-(1-Ethyl-pyrrolidin-2-ylmethyl)-5-iodo-2-methoxy-benzamide in rat striatum 60 min after intravenous administration; type: functional, organism-based
[7] = Ratio of uptake of [125I]- (S)-N-(1-Ethyl-pyrrolidin-2-ylmethyl)-5-iodo-2-methoxy-benzamide in striatum:frontal cortex; 4.7:1; type: functional

Sequence of D(2) dopamine receptor (P61169 whole entry): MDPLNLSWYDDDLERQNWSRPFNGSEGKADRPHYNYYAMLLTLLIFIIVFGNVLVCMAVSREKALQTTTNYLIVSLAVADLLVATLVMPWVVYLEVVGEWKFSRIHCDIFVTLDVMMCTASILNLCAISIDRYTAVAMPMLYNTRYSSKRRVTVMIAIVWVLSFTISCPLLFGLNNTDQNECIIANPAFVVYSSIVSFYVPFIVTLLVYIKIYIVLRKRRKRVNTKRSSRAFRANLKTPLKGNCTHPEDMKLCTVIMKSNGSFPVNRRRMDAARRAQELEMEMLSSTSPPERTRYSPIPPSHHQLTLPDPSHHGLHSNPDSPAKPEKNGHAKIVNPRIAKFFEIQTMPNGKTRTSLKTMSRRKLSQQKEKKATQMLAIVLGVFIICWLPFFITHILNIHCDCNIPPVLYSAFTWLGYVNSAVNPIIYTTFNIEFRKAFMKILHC

IC50 [1]	SMILES	Ratio [2]	Radioactivity [3]	Ratio [4]	Radioactivity [5]	Radioactivity [6]	Ratio [7]
1.5 nM	CCN1CCC[C@H]1CNC(=O)c1cc(I)ccc1OC [IODOPRIDE]						
113 nM	CCN1CCC[C@@H]1CNC(=O)c1cc(I)ccc1OC	1	11.9 nCi g-1	7.2	7.8 nCi g-1	56.2 nCi g-1	4.7
